Test results reported in patent US20120052130A1, “GPR 119 MODULATORS” (Pfizer Inc., priority 2009, published 2012).

How the values were obtained:
[1] = biological target: T1, human GPR119 (Homo sapiens, UniProt Q8TDV5); assay: β-lactamase reporter functional assay for GPR119 agonists (hGPR119 HEK293-CRE beta-lactamase cells); type: cell-based; design: host or cells: hGPR119-HEK293-CRE-beta-lactamase cells; Emax: dose or concentration left out as unconfirmed; conditions: percent of maximal activity relative to standard GPR119 agonist (WO2005121121) at 10 micromolar; read-out: Human B-lactamase Intrinsic Activity*
T1 sequence (Q8TDV5 1-335): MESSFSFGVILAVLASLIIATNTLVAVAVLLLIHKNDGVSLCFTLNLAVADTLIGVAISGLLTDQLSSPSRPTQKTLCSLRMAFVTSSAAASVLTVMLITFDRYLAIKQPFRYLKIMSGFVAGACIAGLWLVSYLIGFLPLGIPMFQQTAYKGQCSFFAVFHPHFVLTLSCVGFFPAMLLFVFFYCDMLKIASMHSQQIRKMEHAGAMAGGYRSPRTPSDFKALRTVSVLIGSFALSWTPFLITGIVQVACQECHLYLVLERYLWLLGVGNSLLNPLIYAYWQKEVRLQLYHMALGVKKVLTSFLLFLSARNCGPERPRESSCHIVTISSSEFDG
Method: The assay for GPR119 agonists utilizes a cell-based (hGPR119HEK293-CRE beta-lactamase) reporter construct where agonist activation of human GPR119 is coupled to beta-lactamase production via a cyclic AMP response element (CRE). GPR119 activity is then measured utilizing a FRET-enabled beta-lactamase substrate, CCF4-AM (Live Blazer FRET-B/G Loading kit, Invitrogen cat #K1027). […] Fluorescence was measured on an EnVision fluorimetric plate reader, excitation 405 nm, emission 460 nm/535 nm. EC50 determinations were made from agonist-response curves analyzed with a curve fitting program using a 4-parameter logistic dose-response equation.

[2] = biological target: T1, human GPR119; assay: HTRF cAMP cell-based GPR119 agonist assay (hGPR119 HEK-CRE beta-lactamase cells); design: host or cells: hGPR119-HEK293-CRE-beta-lactamase cells; conditions: percent of maximal activity relative to standard GPR119 agonist (WO2005121121) at 10 micromolar
Method: GPR119 agonist activity was also determined with a cell-based assay utilizing an HTRF (Homogeneous Time-Resolved Fluorescence) cAMP detection kit (cAMP dynamic 2 Assay Kit; Cis Bio cat #62AM4PEC) that measures cAMP levels in the cell. The method is a competitive immunoassay between native cAMP produced by the cells and the cAMP labeled with the dye d2. The tracer binding is visualized by a Mab anti-cAMP labeled with Cryptate. The specific signal (i.e. energy transfer) is inversely proportional to the concentration of cAMP in either standard or sample.
Specifically, hGPR119HEK-CRE beta-lactamase cells (Invitrogen 2.5×10^7/mL; the same cell line used in the beta-lactamase assay described above) are removed from cryopreservation and diluted in growth medium (Dulbecco's modified Eagle medium high glucose (DMEM; Gibco Cat #11995-065), 1% charcoal dextran treated fetal bovine serum (CD serum; HyClone Cat # SH30068.03), 1×MEM Nonessential amino acids (Gibco Cat #15630-080) and 25 mM HEPES pH 7.0 (Gibco Cat #15630-080)). The cell concentration was adjusted to 1.5×10^5 cells/mL and 30 mLs of this suspension was added to a T-175 flask and incubated at 37 degrees Celsius in a humidified environment in 5% carbon dioxide. […]
Varying concentrations of each compound to be tested were diluted in assay buffer containing 3-isobutyl-1-methylxanthin (IBMX; Sigma cat #15879) and added to the assay plate wells in a volume of 2 microL (final IBMX concentration was 400 microM and final DMSO concentration was 0.58%). […] The plates were then incubated at room temperature and after 60 minutes, changes in the HTRF signal were read with an Envision 2104 multilabel plate reader using excitation of 330 nm and emissions of 615 and 665 nm. Raw data were converted to nM cAMP by interpolation from a cAMP standard curve (as described in the manufacturer's assay protocol) and EC50 determinations were made from an agonist-response curves analyzed with a curve fitting program using a 4-paramter logistic dose response equation.

Row | Structure (SMILES) | Emax [1] | Human cAMP Intrinsic Activity* [2]
1 | CC(C)OC(=O)N1C[C@H]2COC[C@@H](C1)[C@@H]2Oc1cc(N2CCc3cc(S(C)(=O)=O)ccc32)ncn1 [Example 2, Isopropyl 9-syn-({6-[5-(methylsulfonyl)-2,3-dihydro-1H-indol-1-yl]pyrimidin-4-yl}oxy)-3-oxa-7-azabicyclo[3.3.1]nonane-7-carboxylate] | 109% | –
2 | CC(C)OC(=O)N1CCC(Oc2cc(N3CCc4cc(S(C)(=O)=O)ccc43)ncn2)CC1 [Example 3, Isopropyl 4-({6-[5-(methylsulfonyl)-2,3-dihydro-1H-indol-1-yl]pyrimidin-4-yl}oxy)piperidine-1-carboxylate] | – | 107%
